These results are taken from patent US12583849B2, “KCNT1 inhibitors and methods of use” (Praxis Precision Medicines, Inc., priority 2020, dated 2026).

In this test the target is T1, KCNT1 (KNa1.1, Slack) (Homo sapiens, UniProt Q5JUK3).
T1 construct: expressed in transfected cells; host or cells: HEK-TREX (tetracycline-inducible cell line)
T1 sequence (Q5JUK3 1-1230): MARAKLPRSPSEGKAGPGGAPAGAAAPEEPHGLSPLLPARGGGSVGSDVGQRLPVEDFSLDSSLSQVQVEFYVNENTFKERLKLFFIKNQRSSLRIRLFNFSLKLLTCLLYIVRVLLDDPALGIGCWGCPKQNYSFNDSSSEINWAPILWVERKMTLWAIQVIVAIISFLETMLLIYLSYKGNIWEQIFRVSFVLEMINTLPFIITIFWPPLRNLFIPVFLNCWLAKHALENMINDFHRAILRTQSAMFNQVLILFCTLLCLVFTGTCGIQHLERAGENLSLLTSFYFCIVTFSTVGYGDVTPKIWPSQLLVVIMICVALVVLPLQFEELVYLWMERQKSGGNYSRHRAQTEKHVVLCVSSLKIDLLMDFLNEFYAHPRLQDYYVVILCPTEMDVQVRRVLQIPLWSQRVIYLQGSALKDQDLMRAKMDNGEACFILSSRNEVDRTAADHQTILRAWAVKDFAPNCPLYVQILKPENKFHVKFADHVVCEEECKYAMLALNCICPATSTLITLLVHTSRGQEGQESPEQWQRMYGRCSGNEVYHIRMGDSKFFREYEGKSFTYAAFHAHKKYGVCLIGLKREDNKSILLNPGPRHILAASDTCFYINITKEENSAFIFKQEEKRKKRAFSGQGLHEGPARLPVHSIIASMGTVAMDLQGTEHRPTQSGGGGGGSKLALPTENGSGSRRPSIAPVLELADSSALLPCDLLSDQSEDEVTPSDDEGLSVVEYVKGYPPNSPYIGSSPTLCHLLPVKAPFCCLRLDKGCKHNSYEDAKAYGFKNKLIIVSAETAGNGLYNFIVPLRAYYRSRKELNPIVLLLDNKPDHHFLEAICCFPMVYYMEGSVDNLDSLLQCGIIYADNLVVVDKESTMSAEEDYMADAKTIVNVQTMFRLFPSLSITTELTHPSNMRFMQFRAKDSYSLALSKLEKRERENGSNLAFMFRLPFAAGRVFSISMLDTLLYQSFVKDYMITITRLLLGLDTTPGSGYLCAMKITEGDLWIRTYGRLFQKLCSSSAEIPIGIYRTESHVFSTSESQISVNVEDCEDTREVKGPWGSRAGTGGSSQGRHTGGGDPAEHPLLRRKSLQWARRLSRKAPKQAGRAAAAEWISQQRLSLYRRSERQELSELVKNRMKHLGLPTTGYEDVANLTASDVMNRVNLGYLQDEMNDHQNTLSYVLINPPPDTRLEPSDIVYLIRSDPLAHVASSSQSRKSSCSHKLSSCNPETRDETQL
Nature of the test: KCNT1-WT-Basal Patch Clamp Assay. Format: cell-based. As to conditions: tetracycline inducible cell line (HEK-TREX); SyncroPatch 384PE automated patch clamp, perforated patch mode, room temperature, step from -80 mV to 0 mV. How it is done:
KCNT1-WT-Basal—Patch Clamp Assay
Inhibition of KCNT1 (KNa1.1, Slack) was evaluated using a tetracycline inducible cell line (HEK-TREX). Currents were recorded using the SyncroPatch 384PE automated, patch clamp system. Pulse generation and data collection were performed with PatchController384 V1.3.0 and DataController384 V1.2.1 (Nanion Technologies). The access resistance and apparent membrane capacitance were estimated using built-in protocols. Current were recorded in perforated patch mode (10 μM escin) from a population of cells. The cells were lifted, triturated, and resuspended at 800,000 cells/ml. The cells were allowed to recover in the cell hotel prior to experimentation. Currents were recorded at room temperature. The external solution contained the following (in mM): NaCl 105, NMDG 40, KCl 4, MgCl2 1, CaCl2 5 and HEPES 10 (pH=7.4, Osmolarity ˜300 mOsm). The extracellular solution was used as the wash, reference and compound delivery solution. The internal solution contained the following (in mM): NaCl 70, KF 70, KCl 10, EGTA 5, HEPES 5 and Escin 0.01 (pH=7.2, Osmolarity ˜295 mOsm). Escin is made at a 5 mM stock in water, aliquoted, and stored at −20° C. The compound plate was created at 2× concentrated in the extracellular solution. The compound was diluted to 1:2 when added to the recording well. The amount of DMSO in the extracellular solution was held constant at the level used for the highest tested concentration. A holding potential of −80 mV with a 100 ms step to 0 mV was used. Mean current was measured during the step to 0 mV. […] The average mean current from 3 sweeps was calculated and the % inhibition of each compound was calculated. The % Inhibition as a function of the compound concentration was fit with a Hill equation to derive IC50, slope, min and max parameters. If KCNT1 inhibition was less than 50% at the highest tested concentration or if an IC50 could not be calculated, then a percent inhibition was reported in place of the IC50.
In this table, “A” indicates IC50 of less than or equal to 1 μM; “B” indicates inhibition of between 1 μM to 20 μM; and “C” indicates inhibition of greater than or equal to 20 μM.
On the technique in general: In patch-clamp work, channel activity is measured electrically.

Usually IC50 stands for the midpoint of a concentration-inhibition curve. In the case of `CCOc1cc(-c2noc([C@H](C)NC(=O)C3CCCC3)n2)ccn1` [Compound I-45, (S)—N-(1-(3-(2-ethoxypyridin-4-yl)-1,2,4-oxadiazol-5-yl)ethyl)cyclopentanecar-boxamide], the IC50 was at most 1000 nM.
Molecule `CC(C)Oc1cc(-c2noc([C@H](C)NC(=O)C3CCCC3)n2)ccn1` [Compound I-46, (S)—N-(1-(3-(2-isopropoxypyridin-4-yl)-1,2,4-oxadiazol-5-yl)ethyl)cyclopentane-carboxamide] returned a half-inhibitory concentration (IC50) of at most 1000 nM.
To `Cc1nc(C(F)(F)F)ccc1C(=O)NC(C)c1nc(-c2cccc(F)c2)no1` (centres unmarked) [Compound I-47, N-[1-[3-(3-fluorophenyl)-1,2,4-oxadiazol-5-yl]ethyl]-2-methyl-6-(trifluoromethyl)pyridine-3-carboxamide] belongs 1000 to 20000 nM; to `Cc1ncc(C(=O)NC(C)c2nc(-c3cccc(F)c3)no2)c(C)n1` (centres unmarked) [Compound I-48, N-[1-[3-(3-fluorophenyl)-1,2,4-oxadiazol-5-yl]ethyl]-2,4-dimethyl-pyrimidine-5-carboxamide], at least 20000 nM; to `Cc1c(C(=O)NC(C)c2nc(-c3cccc(F)c3)no2)nc2ccccn12` (centres unmarked) [Compound I-49, N-[1-[3-(3-fluorophenyl)-1,2,4-oxadiazol-5-yl]ethyl]-3-methyl-imidazo[1,2-a]pyridine-2-carboxamide], at least 20000 nM.
To `CC(NC(=O)c1cn2ccccc2n1)c1nc(-c2cccc(F)c2)no1` (centres unmarked) [Compound I-50, N-[1-[3-(3-fluorophenyl)-1,2,4-oxadiazol-5-yl]ethyl]imidazo[1,2-a]pyridine-2-carboxamide] belongs at least 20000 nM; to `CC(NC(=O)c1ccc2c(c1)OCCO2)c1nc(-c2cccc(F)c2)no1` (centres unmarked) [Compound I-51, N-[1-[3-(3-fluorophenyl)-1,2,4-oxadiazol-5-yl]ethyl]-2,3-dihydro-1,4-benzodioxine-6-carboxamide], 1000 to 20000 nM.
Molecule `CC(NC(=O)c1cn2c(n1)CCCC2)c1nc(-c2cccc(F)c2)no1` (centres unmarked) [Compound I-52, N-[1-[3-(3-fluorophenyl)-1,2,4-oxadiazol-5-yl]ethyl]-5,6,7,8-tetrahydroimidazo[1,2-a]pyridine-2-carboxamide] yielded an IC50 of at least 20000 nM.
To `Cc1nc(C(F)(F)F)ccc1C(=O)N[C@@H](C)c1nc(-c2ccnc(C3CC3)c2)no1` [Compound I-53, (S)—N-(1-(3-(2-cyclopropylpyridin-4-yl)-1,2,4-oxadiazol-5-yl)ethyl)-2-methyl-6-(trifluoromethyl)nicotinamide] belongs at most 1000 nM.
The molecule `C[C@H](NC(=O)[C@@H]1CCC(=O)N1)c1nc(-c2ccnc(C(F)(F)F)c2)no1` [Compound I-54, (S)-5-oxo-N—((S)-1-(3-(2-(trifluoromethyl)pyridin-4-yl)-1,2,4-oxadiazol-5-yl)ethyl)pyrrolidine-2-carboxamide] displayed an IC50 of at least 20000 nM.
The value for `C[C@H](NC(=O)C1CC(C)(C)C1)c1nc(-c2ccnc(C(F)(F)F)c2)no1` [Compound I-56, (S)-3,3-dimethyl-N-(1-(3-(2-(trifluoromethyl)pyridin-4-yl)-1,2,4-oxadiazol-5-yl)ethyl)cyclobutane-1-carboxamide] was at most 1000 nM; that for `C[C@H](NC(=O)c1ccc(Br)s1)c1nc(-c2ccnc(C3CC3)c2)no1` [Compound I-57, (S)-5-bromo-N-(1-(3-(2-cyclopropylpyridin-4-yl)-1,2,4-oxadiazol-5-yl)ethyl)thiophene-2-carboxamide] was at most 1000 nM.
To `C[C@H](NC(=O)[C@H](C)c1ccccc1)c1nc(-c2ccnc(C3CC3)c2)no1` [Compound I-58, (R)—N—((S)-1-(3-(2-cyclopropylpyridin-4-yl)-1,2,4-oxadiazol-5-yl)ethyl)-2-phenylpropanamide] belongs at most 1000 nM; to `C[C@H](NC(=O)C12CCC(CC1)CC2)c1nc(-c2ccnc(C(F)(F)F)c2)no1` [Compound I-59, (S)—N-(1-(3-(2-(trifluoromethyl)pyridin-4-yl)-1,2,4-oxadiazol-5-yl)ethyl)bicyclo[2.2.2]octane-1-carboxamide], at most 1000 nM; to `C[C@H](NC(=O)C1CC2CCC1CC2)c1nc(-c2ccnc(C(F)(F)F)c2)no1` (stereo partly drawn) [Compound I-60, N—((S)-1-(3-(2-(trifluoromethyl)pyridin-4-yl)-1,2,4-oxadiazol-5-yl)ethyl)bicyclo[2.2.2]octane-2-carboxamide], at most 1000 nM.
The value for `COc1ccc(C(=O)N[C@@H](C)c2nc(-c3ccnc(C4CC4)c3)no2)cc1` [Compound I-61, (S)—N-(1-(3-(2-cyclopropylpyridin-4-yl)-1,2,4-oxadiazol-5-yl)ethyl)-4-methoxybenzamide] was at most 1000 nM; that for `C[C@H](NC(=O)c1ccc(Cl)cc1)c1nc(-c2ccnc(C3CC3)c2)no1` [Compound I-62, (S)-4-chloro-N-(1-(3-(2-cyclopropylpyridin-4-yl)-1,2,4-oxadiazol-5-yl)ethyl)benzamide] was at most 1000 nM.
In the case of `C[C@H](NC(=O)c1cccc(Cl)c1)c1nc(-c2ccnc(C3CC3)c2)no1` [Compound I-63, 3-chloro-N-[(1S)-1-[3-(2-cyclopropyl-4-pyridyl)-1,2,4-oxadiazol-5-yl]ethyl]benzamide], the IC50 was at most 1000 nM.
The value for `C[C@H](NC(=O)[C@@H](C)c1ccccc1)c1nc(-c2ccnc(C3CC3)c2)no1` [Compound I-64, (2S)—N-[(1S)-1-[3-(2-cyclopropyl-4-pyridyl)-1,2,4-oxadiazol-5-yl]ethyl]-2-phenyl-propanamide] was at most 1000 nM; that for `C[C@H](NC(=O)C1CCN(C)CC1)c1nc(-c2ccnc(C(F)(F)F)c2)no1` [Compound I-65, (S)-1-methyl-N-(1-(3-(2-(trifluoromethyl)pyridin-4-yl)-1,2,4-oxadiazol-5-yl)ethyl)piperidine-4-carboxamide] was at least 20000 nM; that for `C[C@H](NC(=O)C1CCCCN1C)c1nc(-c2ccnc(C(F)(F)F)c2)no1` (stereo partly drawn) [Compound I-66, 1-methyl-N—((S)-1-(3-(2-(trifluoromethyl)pyridin-4-yl)-1,2,4-oxadiazol-5-yl)ethyl)piperidine-2-carboxamide] was at least 20000 nM.
To `C[C@H](NC(=O)C1CCC(C)(C)CC1)c1nc(-c2ccnc(C(F)(F)F)c2)no1` [Compound I-67, (S)-4,4-dimethyl-N-(1-(3-(2-(trifluoromethyl)pyridin-4-yl)-1,2,4-oxadiazol-5-yl)ethyl)cyclohexane-1-carboxamide] belongs at most 1000 nM.
As for `C[C@H](NC(=O)C1CCCN(C)C1)c1nc(-c2ccnc(C(F)(F)F)c2)no1` (stereo partly drawn) [Compound I-68, 1-methyl-N—((S)-1-(3-(2-(trifluoromethyl)pyridin-4-yl)-1,2,4-oxadiazol-5-yl)ethyl)piperidine-3-carboxamide], the IC50 is at least 20000 nM.
